Assay results taken from patent publication US10202370B2, “Benzimidazole derivatives as selective proteine kinase inhibitors” (AB SCIENCE, priority 2013, dated 2019).

The molecules below were run against c-kit WT (Homo sapiens (Human), UniProt P10721) (assay: Proliferation assay (CellTiter-Blue) on BaF3 Kit WT cell line). Conditions: BaF3 Kit WT cell line (murine Ba/F3 expressing Human Kit WT, with murine SCF), 48 hours.
Type: cell-based
Method: Procedures of C-Kit WT Inhibition Assays:
Colorimetric cell proliferation and viability assay (reagent CellTiter-Blue purchased from Promega cat N°G8081) was performed on BaF3 Kit WT cell line.
A total of 2.10^4 cells/50 μl were seeded per well of a 96-wells plate. Treatment was initiated by addition of a 2× drug solution of ½ serial dilutions ranging from 0 to 10 μM. After incubating for 48 hours at 37° C., 10 μl of a ½ dilution of CellTiter-Blue reagent was added to each well and the plates were returned to the incubator for an additional 4 hours. The fluorescence intensity from the CellTiter-Blue reagent is proportional to the number of viable cells and data were recorded (544Ex/590Em) using a POLARstar OMEGA microplate reader (BMG LabteckSarl). A background control without cells was used as a blank. The positive control of the assay corresponds to the cell proliferation obtained in the absence of drug treatment (100% proliferation). Each sample was done in triplicate. The results were expressed as a percentage of the proliferation obtained in absence of treatment. All drugs were prepared as 20 mM stock solutions in DMSO and conserved at −80° C. Drug dilutions were made fresh in medium before each experiment. A DMSO control was included in each experiment.
The cell line expressing Human Kit WT was derived from the murine IL3-dependent Ba/F3 proB lymphoid cells. Ba/F3 Kit WT cells were maintained in RPMI medium containing 10% FCS and supplemented with 250 ng/ml of recombinant murine SCF.

Sequence of c-kit WT (P10721 26-976): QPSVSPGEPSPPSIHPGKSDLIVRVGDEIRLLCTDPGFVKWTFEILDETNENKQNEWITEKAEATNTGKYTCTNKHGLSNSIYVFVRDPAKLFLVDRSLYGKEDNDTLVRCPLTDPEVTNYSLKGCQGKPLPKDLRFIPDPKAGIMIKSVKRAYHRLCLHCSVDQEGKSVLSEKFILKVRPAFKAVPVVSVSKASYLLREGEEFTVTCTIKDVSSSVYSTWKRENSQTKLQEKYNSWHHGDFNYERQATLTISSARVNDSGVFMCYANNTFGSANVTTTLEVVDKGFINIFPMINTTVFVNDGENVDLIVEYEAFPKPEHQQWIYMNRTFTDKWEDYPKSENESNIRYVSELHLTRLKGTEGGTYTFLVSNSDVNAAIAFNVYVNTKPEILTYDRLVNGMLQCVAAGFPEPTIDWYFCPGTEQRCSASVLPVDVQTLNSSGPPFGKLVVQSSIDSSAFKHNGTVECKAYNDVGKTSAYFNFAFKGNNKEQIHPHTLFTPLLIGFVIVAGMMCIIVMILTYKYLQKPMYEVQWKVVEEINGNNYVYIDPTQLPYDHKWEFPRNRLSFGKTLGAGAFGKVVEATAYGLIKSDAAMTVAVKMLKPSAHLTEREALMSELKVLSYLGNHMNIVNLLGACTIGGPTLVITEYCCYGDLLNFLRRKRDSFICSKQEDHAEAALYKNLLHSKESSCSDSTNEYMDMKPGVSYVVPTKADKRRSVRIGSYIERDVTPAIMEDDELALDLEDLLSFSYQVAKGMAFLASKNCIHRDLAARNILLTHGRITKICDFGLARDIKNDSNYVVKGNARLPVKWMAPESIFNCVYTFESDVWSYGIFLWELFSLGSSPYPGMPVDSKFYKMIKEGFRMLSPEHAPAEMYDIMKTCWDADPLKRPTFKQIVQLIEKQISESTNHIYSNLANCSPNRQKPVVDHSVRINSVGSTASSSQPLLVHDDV

| SMILES | IC50 [nM] |
| --- | --- |
| Cc1cc2c(cc1Nc1nc(-c3cccnc3)cs1)nc(-c1cccc(C(C)(C)C)c1)n2C [Compound 145, [2-(3-tert-Butyl-phenyl)-1,6-dimethyl-1H-benzoimidazol-5-yl]-(4-pyridin-3-yl-thiazol-2-yl)-amine] | ≤ 1000 |
| Cc1cc2[nH]c(-c3cccc(C(C)C)c3)nc2cc1Nc1nc(-c2cccnc2)cs1 [Compound 136, [2-(3-Isopropyl-phenyl)-6-methyl-1H-benzoimidazol-5-yl]-(4-pyridin-3-yl-thiazol-2-yl)-amine] | ≤ 1000 |
| Cc1cc2c(cc1Nc1nc(-c3ccncc3)cs1)nc(-c1cccc(C(F)(F)F)c1)n2C(C)C [Compound 101, [1-Isopropyl-6-methyl-2-(3-trifluoromethyl-phenyl)-1H-benzoimidazol-5-yl]-(4-pyridin-4-yl-thiazol-2-yl)-amine] | ≤ 1000 |
| Cc1cc2nc(-c3cccc(C#N)c3)[nH]c2cc1Nc1nccc(-c2cccnc2)n1 [Compound 013, 3-[5-Methyl-6-(4-pyridin-3-yl-pyrimidin-2-ylamino)-1H-benzoimidazol-2-yl]-benzonitrile] | 1000 to 10000 |
| Cc1cc2c(cc1Nc1nc(-c3ccc(C#N)cc3)cs1)nc(-c1cc(F)cc(C(F)(F)F)c1)n2C [Compound 138, 4-{2-[2-(3-Fluoro-5-trifluoromethyl-phenyl)-1,6-dimethyl-1H-benzoimidazol-5-ylamino]-thiazol-4-yl}-benzonitrile] | ≤ 1000 |
| COc1cccc(-c2nc3cc(Nc4nc(-c5ccc(C#N)cc5)cs4)c(C)cc3[nH]2)c1 [Compound 128, 4-{2-[2-(3-Methoxy-phenyl)-6-methyl-1H-benzoimidazol-5-ylamino]-thiazol-4-yl}-benzonitrile] | ≤ 1000 |
| Cc1cccc(-c2nc3cc(C)c(Nc4nccc(-c5cccnc5)n4)cc3[nH]2)c1 [Compound 012, (6-Methyl-2-m-tolyl-3H-benzoimidazol-5-yl)-(4-pyridin-3-yl-pyrimidin-2-yl)-amine] | 1000 to 10000 |
| Cc1cccc(-c2nc3cc(C)c(Nc4nc(-c5cncnc5)cs4)cc3[nH]2)c1 [Compound 066, (6-Methyl-2-m-tolyl-1H-benzoimidazol-5-yl)-(4-pyrimidin-5-yl-thiazol-2-yl)-amine] | 1000 to 10000 |
| Cc1cc2c(cc1Nc1nc(-c3ccc(C#N)cc3)cs1)nc(-c1cccc(C(F)F)c1)n2C [Compound 111, 4-{2-[2-(3-Difluoromethyl-phenyl)-1,6-dimethyl-1H-benzoimidazol-5-ylamino]-thiazol-4-yl}-benzonitrile] | ≤ 1000 |
| Cc1cc2nc(-c3ccc(CN4CCN(C)CC4)cc3)[nH]c2cc1Nc1ncc(-c2cccnc2)o1 [Compound 006, {6-Methyl-2-[4-(4-methyl-piperazin-1-ylmethyl)-phenyl]-3H-benzoimidazol-5-yl}-(5-pyridin-3-yl-oxazol-2-yl)-amine] | 1000 to 10000 |
| Cc1cc2nc(-c3cc(CN4CCOCC4)cc(C(F)(F)F)c3)[nH]c2cc1Nc1nccc(-c2cccnc2)n1 [Compound 028] | ≤ 1000 |
| CCn1c(-c2cccc(OC(F)(F)F)c2)nc2cc(Nc3nc(-c4cccnc4)cs3)c(C)cc21 [Compound 115, [1-Ethyl-6-methyl-2-(3-trifluoromethoxy-phenyl)-1H-benzoimidazol-5-yl]-(4-pyridin-3-yl-thiazol-2-yl)-amine] | ≤ 1000 |
| C#Cc1cccc(-c2nc3cc(Nc4nc(-c5ccc(C#N)cc5)cs4)c(C)cc3[nH]2)c1 [Compound 141, 4-{2-[2-(3-Ethynyl-phenyl)-6-methyl-1H-benzoimidazol-5-ylamino]-thiazol-4-yl}-benzonitrile] | ≤ 1000 |
| C#Cc1cccc(-c2nc3cc(Nc4nc(-c5cccnc5)cs4)c(C)cc3[nH]2)c1 [Compound 139, [2-(3-Ethynyl-phenyl)-6-methyl-1H-benzoimidazol-5-yl]-(4-pyridin-3-yl-thiazol-2-yl)-amine] | ≤ 1000 |
| CCn1c(-c2cccc(C(F)F)c2)nc2cc(Nc3nc(-c4cccnc4)cs3)c(C)cc21 [Compound 109] | ≤ 1000 |
| Cc1cc2c(cc1Nc1nc(-c3ccncc3)cs1)nc(-c1cccc(C(F)F)c1)n2C(C)C [Compound 100, [2-(3-Difluoromethyl-phenyl)-1-isopropyl-6-methyl-1H-benzoimidazol-5-yl]-(4-pyridin-4-yl-thiazol-2-yl)-amine] | ≤ 1000 |
| Cc1cc2c(cc1Nc1nc(-c3ccncc3)cs1)nc(-c1cccc(C(F)F)c1)n2C [Compound 081, [2-(3-Difluoromethyl-phenyl)-1,6-dimethyl-1H-benzoimidazol-5-yl]-(4-pyridin-4-yl-thiazol-2-yl)-amine] | ≤ 1000 |

| SMILES | IC50 [nM] |
| --- | --- |
| Cc1cc2c(cc1Nc1nc(-c3ccncc3)cs1)nc(-c1ccc(CN3CCN(C)CC3)cc1)n2C [Compound 099, {1,6-Dimethyl-2-[4-(4-methyl-piperazin-1-ylmethyl)-phenyl]-1H-benzoimidazol-5-yl}-(4-pyridin-4-yl-thiazol-2-yl)-amine] | 1000 to 10000 |
| Cc1cc2nc(Cc3cccc(F)c3)[nH]c2cc1Nc1ncc(-c2ccncc2)o1 [Compound 052, [2-(3-Fluoro-benzyl)-6-methyl-3H-benzoimidazol-5-yl]-(5-pyridin-4-yl-oxazol-2-yl)-amine] | 1000 to 10000 |
| Cc1cc2nc(Cc3cccc(C(F)(F)F)c3)[nH]c2cc1Nc1ncc(-c2ccncc2)o1 [Compound 051, [6-Methyl-2-(3-trifluoromethyl-benzyl)-3H-benzoimidazol-5-yl]-(5-pyridin-4-yl-oxazol-2-yl)-amine] | 1000 to 10000 |
| Cc1cc2nc(-c3cccc(C(F)(F)F)c3)[nH]c2cc1Nc1ncc(-c2ccncc2)o1 [Compound 053, [6-Methyl-2-(3-trifluoromethyl-phenyl)-3H-benzoimidazol-5-yl]-(5-pyridin-4-yl-oxazol-2-yl)-amine] | 1000 to 10000 |
| Cc1cc2c(cc1Nc1nc(-c3ccncc3)cs1)nc(-c1ccc(C(F)F)cc1)n2C [Compound 094, [2-(4-Difluoromethyl-phenyl)-1,6-dimethyl-1H-benzoimidazol-5-yl]-(4-pyridin-4-yl-thiazol-2-yl)-amine] | ≤ 1000 |
| Cc1cc2nc(-c3cccc(Cl)c3)[nH]c2cc1Nc1nccc(-c2cccnc2)n1 [Compound 031, [2-(3-Chloro-phenyl)-6-methyl-3H-benzoimidazol-5-yl]-(4-pyridin-3-yl-pyrimidin-2-yl)-amine] | ≤ 1000 |
| COc1ccc(-c2nc3cc(C)c(Nc4nc(-c5cccnc5)cs4)cc3[nH]2)cc1 [Compound 002, [2-(4-Methoxy-phenyl)-6-methyl-3H-benzoimidazol-5-yl]-(4-pyridin-3-yl-thiazol-2-yl)-amine] | 1000 to 10000 |
| Cc1cc2[nH]c(-c3cccc(S(C)(=O)=O)c3)nc2cc1Nc1nc(-c2ccc(C#N)cc2)cs1 [Compound 131, 4-{2-[2-(3-Methanesulfonyl-phenyl)-6-methyl-1H-benzoimidazol-5-ylamino]-thiazol-4-yl}-benzonitrile] | ≤ 1000 |
| Cc1cc2[nH]c(-c3cccc(C(C)C)c3)nc2cc1Nc1nc(-c2ccncc2)cs1 [Compound 150, [2-(3-Isopropyl-phenyl)-6-methyl-1H-benzoimidazol-5-yl]-(4-pyridin-4-yl-thiazol-2-yl)-amine] | ≤ 1000 |
| Cc1cc2c(cc1Nc1nc(-c3cccnc3)cs1)nc(-c1cc(F)cc(C(F)(F)F)c1)n2C [Compound 148, [2-(3-Fluoro-5-trifluoromethyl-phenyl)-1,6-dimethyl-1H-benzoimidazol-5-yl]-(4-pyridin-3-yl-thiazol-2-yl)-amine] | ≤ 1000 |
| Cc1cc2nc(-c3cccc(CN4CCOCC4)c3)[nH]c2cc1Nc1nccc(-c2cccnc2)n1 [Compound 018, [6-Methyl-2-(3-morpholin-4-ylmethyl-phenyl)-3H-benzoimidazol-5-yl]-(4-pyridin-3-yl-pyrimidin-2-yl)-amine] | 1000 to 10000 |
| Cc1cc2c(cc1Nc1nc(-c3ccncc3)cs1)nc(-c1cccc(C(C)(C)C)c1)n2C [Compound 152, [2-(3-tert-Butyl-phenyl)-1,6-dimethyl-1H-benzoimidazol-5-yl]-(4-pyridin-4-yl-thiazol-2-yl)-amine] | ≤ 1000 |
| Cc1cc2nc(-c3cccc(CN4CCN(C)CC4)c3)[nH]c2cc1Nc1nc(-c2cccnc2)cs1 [Compound 044, {6-Methyl-2-[3-(4-methyl-piperazin-1-ylmethyl)-phenyl]-1H-benzoimidazol-5-yl}-(4-pyridin-3-yl-thiazol-2-yl)-amine] | 1000 to 10000 |
| CCn1c(-c2cccc(C)c2)nc2cc(Nc3nc(-c4ccncc4)cs3)c(C)cc21 [Compound 104, (1-Ethyl-6-methyl-2-m-tolyl-1H-benzoimidazol-5-yl)-(4-pyridin-4-yl-thiazol-2-yl)-amine] | ≤ 1000 |
| Cc1cc2nc(-c3cccc(OCCN(C)C)c3)[nH]c2cc1Nc1nccc(-c2cccnc2)n1 [Compound 016, {2-[3-(2-Dimethylamino-ethoxy)-phenyl]-6-methyl-3H-benzoimidazo1-5-yl}-(4-pyridin-3-yl-pyrimidin-2-yl)-amine] | 1000 to 10000 |
| Cc1cc2c(cc1Nc1nc(-c3ccncc3)cs1)nc(-c1cccc(S(C)(=O)=O)c1)n2C [Compound 120, [2-(3-Methanesulfonyl-phenyl)-1,6-dimethyl-1H-benzoimidazol-5-yl]-(4-pyridin-4-yl-thiazol-2-yl)-amine] | ≤ 1000 |
